Source: US20240390484A1 (priority 2022, published 2024)

Legend:
[1] = RNA encapsulation/complexation efficiency by Ribogreen assay; assay type: physicochemical; details: 48/40.5/10/1.5 mol %; blank-LNP added to lyophilized S2P RNA (55 ug/vial), N/P 7
Procedure: (§1) In the case of a filled LNP, for example, an LNP-encapsulated S-2P RNA liquid drug product, the preparation protocol is essentially the same, except that it was an aqueous solution of S-2P RNA in citrate buffer pH 5-6 that constitutes the aqueous phase for LNP formation. The LNP-encapsulated RNA formulation is also referred to as “RNA-LNP” in this disclosure. Regarding characterization, particle size and polydispersity index (PDI) of the RNA-LNP were determined by Dynamic Light Scattering (DLS); RNA encapsulation efficiency and concentration were determined by means of Ribogreen® assay and RNA purity was determined by agarose gel electrophoresis.
(§2) The “ready-to-use” RNA product was manufactured by transferring a predetermined amount of already formed LNP in solution to a sealed vial containing the lyophilized RNA composition, followed by mixing at room temperature. The amount of LNP added per vial (e.g., 30-100 μg RNA per vial) was determined based on the molar ionizable lipid:RNA (N/P) molar ratio of 7. In this disclosure, “ready-to-use” S-2P RNA formulations (also referred to as “LNP(S-2P RNA)”) containing 30-100 μg/mL S-2P RNA were prepared, and then characterized with respect to particle size, polydispersity index, as well as RNA concentration, complexation efficiency, and purity using the same methods as described above in Example 3.

[2] = Particle size and polydispersity index (PDI) by Dynamic Light Scattering; assay type: physicochemical; details: for “Ready-to-use” S2P RNA formulation PDI / “Ready-to-use” S2P RNA formulation Size: 48/40.5/10/1.5 mol %, blank-LNP added to lyophilized S2P RNA (55 ug/vial), N/P 7; for Blank-LNP PDI / Blank-LNP Size: 48/40.5/10/1.5 mol % ionizable lipid/cholesterol/DSPC/DMG-PEG
Procedure: (§3) Lipid nanoparticles (LNPs) were formed or formulated by rapid mixing of an ethanol phase and an aqueous phase using a microfluidic device. The aqueous phase included a 50 mM citrate buffer (pH 5.5). The ethanol phase included an ionizable lipid (as described herein), cholesterol (Jiangsu Southeast Nanomaterials), 1,2-diastearoyl-sn-glycero-3-phosphocholine (DSPC) (Jiangsu Southeast Nanomaterials) and 1,2-dimyristoyl-rac-glycero-3-methoxypolyethylene glycol-2000 (DMG-PEG2000) (SINOPEG). A series of ionizable lipids were evaluated. These four lipid components were mixed at defined molar ratios in ethanol, for instance, at a molar ratio of 48:40.5:10:1.5 (ionizable lipid:cholesterol:DSPC:DMG-PEG2000). The generated LNP particles were purified in citrate buffer (containing sucrose) and characterized with respect to particle size, polydispersity index (PDI) and ionizable lipid concentration. The LNP solution was then diluted to the target concentration and stored at 2-8° C.
as §1, §2

[3] = Stability of blank-LNP at 2-8° C. (particle size, PDI); assay type: physicochemical; details: blank-LNP 48/40.5/10/1.5 mol %
Procedure: as §3
Each generated blank-LNP formulation was added to and mixed with lyophilized S2P RNA, altogether yielding a series of “ready-to-use” S2P RNA test items containing the different ionizable lipids. The pharmaceutical characteristics (Table 3) and in vitro transfection efficiency (Table 4) of these “ready-to-use” RNA test items were compared head-to-head. In parallel, the stability profiles of these […] blank-LNP formulations (i.e. without RNA complexation) were assessed at 2-8° C. (see Table 5).
The generated fourteen blank-LNP formulations were characterized in terms of particle size and PDI, both at the end of manufacturing (T=0) and 8-week storage at 2-8° C. […] (defined as size increase ≤20 nm in 8 weeks), namely DMG-PEG2000 between at least 1-4 mol %, DSPC between at least 5-20 mol %, ionizable lipid between at least 30-70 mol % and cholesterol between at least 18.5-58.5 mol %.

[4] = test system: BHK-21 cells; assay type: cell-based; details: ready-to-use S2P RNA, 4 μg, 48 hours post transfection; 48/40.5/10/1.5 mol %
[5] = test system: Vero E6 cells; assay type: cell-based; details: ready-to-use S2P RNA, 4 μg, 48 hours post transfection; 48/40.5/10/1.5 mol %

CCCCCCOCCC/C=C/COC(=O)CCCCCCCCC(CCCCCCCCC(=O)OC/C=C/CCCOCCCCCC)OC(=O)CCCN(C)C [Lipid #11]
“Ready-to-use” S2P RNA formulation RNA complexation efficiency [1]: 34%
“Ready-to-use” S2P RNA formulation PDI [2]: 0.11
“Ready-to-use” S2P RNA formulation Size [2]: 266 nm
Blank-LNP PDI [2]: 0.09
Blank-LNP Size [2]: 165 nm
Change in size (nm) vs. T0, T = 1 month [3]: +59 nm
PDI, T = 1 month [3]: 0.06
Size, T = 1 month [3]: 224 nm
Change in size (nm) vs. T0, T = 2 weeks [3]: +42 nm
PDI, T = 2 weeks [3]: 0.04
Size, T = 2 weeks [3]: 207 nm
PDI, T = 0 [3]: 0.09
Size, T = 0 [3]: 165 nm
RBD expression in BHK-21 cells [4]: 0.52 ng/mL
RBD expression in Vero E6 cells [5]: 0.20 ng/mL

CCCCCCCCOC/C=C\COC(=O)CCCCCCCCC(CCCCCCCCC(=O)OC(CCCCCCCC)CCCCCCCC)OC(=O)CCCN(C)C (stereo not drawn) [Lipid #12]
“Ready-to-use” S2P RNA formulation RNA complexation efficiency [1]: 27%
“Ready-to-use” S2P RNA formulation PDI [2]: 0.14
“Ready-to-use” S2P RNA formulation Size [2]: 172 nm
Blank-LNP PDI [2]: 0.04
Blank-LNP Size [2]: 85 nm
Change in size (nm) vs. T0, T = 1 month [3]: +12 nm
PDI, T = 1 month [3]: 0.11
Size, T = 1 month [3]: 97 nm
Change in size (nm) vs. T0, T = 2 weeks [3]: +8 nm
PDI, T = 2 weeks [3]: 0.06
Size, T = 2 weeks [3]: 93 nm
PDI, T = 0 [3]: 0.04
Size, T = 0 [3]: 85 nm
RBD expression in BHK-21 cells [4]: 0.19 ng/mL
RBD expression in Vero E6 cells [5]: <LOD
